How the values were obtained:
Assay type in all cases: cell-based
[1] = tested on: TNFα release from THP-1 cells; test: Primary screen (Example 1a): LPS-stimulated TNFα release from THP-1 cells, HTRF; details: Homo sapiens, 100 ng/mL LPS, 3 h, normalised to 50 μM Batimastat, read-out: Primary Screen XC50 TNFα
Description: (§1) Two separate screens to identify novel small molecule inhibitors of iRhom2/ADAM17 activity were developed. […] Therefore, the primary screen for small molecule inhibitors of iRhom2/ADAM17 was a screen for inhibitors that blocked the release of TNFα from LPS-stimulated THP-1 human myeloid cells, a process that depends on iRhom2 and ADAM17. Since the release of TNFα from THP-1 cells can be blocked at many stages of the LPS/TLR4/iRhom2/ADAM17 pathway, a secondary screen was performed for another iRhom2/ADAM17 selective substrate, Kit-ligand 2 (KL-2) (Maretzky T et al. (July 2013), “iRhom2 controls the substrate selectivity of stimulated ADAM17-dependent ectodomain shedding”, PNAS 110(28): 11433-11438) in a different human cell type, human embryonic kidney cells (HEK 293).
THP-1 cells were plated in 384 or 1,536 wells and transferred on the ultra-high throughput screening (uHTS) platform Mark III, and TNFα shedding was initiated by LPS stimulation of THP-1 cells. The extent of released TNFα was detected with the corresponding HTRF antibodies labeled with europium cryptate (donor) and d2 (acceptor). The HTRF signal was generated by proximity of europium cryptate and d2. All detection reagents were purchased from Cisbio. TNFα detection was performed according to the manufacturer's protocol (Product Insert for Cisbio TNFα (h) Kit Part #62HTNFAPEG & 62HTNFAPEH;
7.5 nL compound and controls in DMSO [10 μM in assay; 0.25% DMSO in 3 [μL Assay] were dissolved in 2 μL cell suspension [2.4E6/mL; 4800 cells/well; culture w/o PenStrep], pre-incubated at 37° C., 5% CO2, for 15 min with 1 μL LPS [100 ng/mL in 3 μL assay]. The cells were incubated at 37° C., 5% CO2, for 3 h with 2 μL of the HTRF-mix [1:300 f.c.]. After an incubation at room temperature for 2 h or longer, the HTRF readout was performed. Then data evaluation for normalization against the 50 μM Batimastat control (=100% […]) was applied. As an additional control, 300 nM Batimastat was used to monitor performance of cells and assay sensitivity over time.

[2] = tested on: TGFα release from HEK-293 cells; test: Counter screen (Example 4a): PMA-stimulated TGFα release from HEK-293 cells, AP readout; details: Homo sapiens, HEK293, HEK-293 cells expressing TGFα-AP, PMA 100 ng/mL, 2 h, read-out: Counter Screen XC50 TGFα
Description: (§2) A tertiary counterscreen was also performed to monitor the release of TGFα, which is a substrate of iRhom1/ADAM17 and iRhom2/ADAM17, so its release should not be blocked by an iRhom2-selective inhibitor (Maretzky T et al. (July 2013), “iRhom2 controls the substrate selectivity of stimulated ADAM17-dependent ectodomain shedding”, PNAS 110(28): 11433-11438; and Li X et al. (May 2015), “iRhoms 1 and 2 are essential upstream regulators of ADAM17-dependent EGFR signaling”, PNAS 112(19): 6080-6085).
(§3) First, expression plasmids for alkaline phosphatase (AP)-fused KL2 and TGFα were designed and generated through gene synthesis followed by subcloning into the pcDNA3.1(+)/Hygro expression vector. […] Subsequently, DNA amplifications were performed to obtain sufficient amounts of the expression vectors. The quality of DNA and gene sequences were confirmed through restriction digest and Sanger sequencing. In parallel, cell culture of THP-1 and HEK-293 cells was initiated. Master and working cell banks were prepared. Both cell lines were scaled up and transfected with the respective constructs by electroporation. During cell culturing, cell density and viability were monitored to ensure optimal conditions for the transfections. After PMA stimulation, AP-coupled KL2 or TGFα were detected by measurement of AP activity in the supernatant. […] In contrast, THP-1 cells turned out to be not a suitable transfection host resulting in a loss of cell viability after transfection. The decision was made to proceed with HEK-293 for both selectivity assays and to establish polyclonal cell lines stably expressing AP-coupled KL2 or TGFα.
(§4) After electroporation, cells were further cultured in presence of selection antibiotics, hygromycin B, to generate stably transfected polyclonal cell pools. For both assays, KL2 and TGFα shedding, the respective selected pool turned out to be suitable. Final assay conditions were determined for the selected pools. For all experiments, batimastat (30 μM) was used as positive control for full inhibition of KL2 or TGFα shedding.
(§5) 60 μL of cells (20,000/well) were added to a sterile 384-well plate. After incubation overnight at 37° C. (5% CO2), 50 μL medium were removed and 20 μL of prediluted compounds were added to the cells. After incubation for 15 min, 20 μL of PMA (100 ng/mL final conc.) were added. The cells were incubated for 2 h at 37° C. (5% CO2). Then, 20 μL of the supernatant was transferred to a fresh plate and 20 μL of pNPP (5 mM final conc.) was added. The AP reaction was performed for 1 h at RT. The reaction was stopped by addition of 20 μL of NaOH (1 M final conc.) and the absorbance of pNP was measured at 405 nm.

[3] = tested on: KL2 release from HEK-293 cells; test: Secondary screen (Example 3a): PMA-stimulated KL2 release from HEK-293 cells, AP readout; details: Homo sapiens, HEK293, HEK-293 cells expressing KL2-AP, PMA 500 ng/mL, 2 h, read-out: Secondary Screen XC50 KL2
Description: as §1, §3, §4
as §5, with “of cells (40,000/well) were added” for “of cells (20,000/well) were added”, “of PMA (500 ng/mL final” for “of PMA (100 ng/mL final”, “was added. AP reaction” for “was added. The AP reaction”

[4] = tested on: TNFα release from THP-1 cells; test: Primary screen (Example 1b): LPS-stimulated TNFα release from THP-1 cells, overnight pre-incubation, HTRF; details: Homo sapiens, overnight with inhibitor, 100 ng/mL LPS, 3 h, normalised to 10 μM Batimastat
Description: as §1
THP-1 cells were plated in low volume 384 wells (10,000 cells per well in 12.6 μL RPMI medium) together with inhibitors or 10 μM BB94 and incubated over night. The next day, TNFα shedding was initiated by stimulation of THP-1 cells with 100 ng/mL LPS (1.8 μL of an 800 ng/mL LPS stock) for 3 hrs at 37° C. The extent of released TNFα was detected with the corresponding HTRF antibodies labeled with europium cryptate (donor) and d2 (acceptor). The HTRF signal was generated by proximity of europium cryptate and d2. All detection reagents were purchased from Cisbio. TNFα detection was performed according to the manufacturer's protocol (Product Insert for Cisbio TNFα (h) Kit Part #62HTNFAPEG & 62HTNFAPEH;
Low volume 384 well plates were pre-coated with small molecule library compounds for a final concentration of 20 μM in a 15 μL reaction, or 0.75 μL of 200 μM stock of BB94 in 5% DMSO (final concentration 0.25%). 12.6 μL of cell suspension [8E5/mL; 10,000 cells/well; culture RPMI medium] and pre-incubated at 37° C., 5% CO2, over night. The next day, 1.8 μL of an 800 ng/mL LPS stock was added [final concentration 100 ng/mL in 15 μL assay] and the cells were incubated at 37° C., 5% CO2, for 3 h. Subsequently, 3 μL of the HTRF-mix [used at 1:3 dilution of cisbio HTRF human TNF] was added and the plates were incubated for an additional 2 hrs at 25° C. After an incubation at room temperature for 2 h, the HTRF readout was performed. Then data evaluation for normalization against the 10 μM Batimastat control (=100% […]) was applied.

[5] = tested on: KL2 release from HEK-293 cells; test: Secondary screen (Example 3b): PMA-stimulated KL2 release from HEK-293 cells, AP readout; details: Homo sapiens, HEK293, HEK-293 cells expressing KL2-AP, PMA 100 ng/mL, 2 h, read-out: Secondary Screen IC50 KitL2
Description: as §1
(§6) Expression plasmids for alkaline phosphatase (AP)-fused human KL2 and TGFα had been previously designed and generated through gene synthesis followed by subcloning into the pcDNA3.1(+)/Hygro expression vector. […] Subsequently, DNA amplifications were performed to obtain sufficient amounts of the expression vectors. The quality of DNA and gene sequences were confirmed through restriction digest and Sanger sequencing. In parallel, cell culture of HEK-293 cells was initiated. Master and working cell banks were prepared, scaled up and transfected with the respective constructs by electroporation. During cell culturing, cell density and viability were monitored to ensure optimal conditions for the transfections. After PMA stimulation, AP-coupled KL2 or TGFα were detected by measurement of AP activity in the supernatant.
as §4, with “(BB94, 10” for “(30”
(§7) The wells of sterile 384-well flat bottom clear plates for KL2-AP assays were coated with 10 μL of 0.1 mg/mL poly-d-lysine for 3-4 hr at 25° C. or overnight at 4° C., then washed 2× with PBS and patted dry. 60 μL of cells (40,000/well) were added to the sterile 384-well plate and incubated in Optimem (with 2% FCS and 1% Pen-strep) overnight at 37° C. (5% CO2). After incubation overnight, 55 μL medium were removed with a BioTek EL406 and 10 μL of prediluted compounds were added to the cells for a final concentration of 20 μM. After incubation for 15 min, 15 μL of PMA (100 ng/mL final conc.) were added. The cells were incubated for 2 h at 37° C. (5% CO2). Then, the plates were centrifuged for 5 min at 1000 rpm and 3 μL of the supernatant was transferred to a fresh 384 well plate and 9 μL of AP Balance Buffer was added per well. 12 μL of pNPP p-nitrophenyl phosphate (final 1 M pNPP) was added. AP reaction was performed for 1 h at 37° C. The reaction was stopped by addition of 12 μL of NaOH (1 M final conc.), the plates were centrifuged to remove air bubbles and the absorbance of pNP was measured at 405 nm.

[6] = tested on: TGFα release from HEK-293 cells; test: Counter screen (Example 4b): PMA-stimulated TGFα release from HEK-293 cells, AP readout; details: Homo sapiens, HEK293, HEK-293 cells expressing TGFα-AP, PMA 100 ng/mL, 2 h
Description: as §2, §6
as §4, with “(BB94, 10” for “(30”
as §7, with “for TGF-AP” for “for KL2-AP”, “cells (20,000/well)” for “cells (40,000/well)”, “and 12” for “and 3”, “well plate.” for “well plate and 9 μL of AP Balance Buffer was added per well.”

Compound	IC50 [1] [µM]	IC50 [2] [µM]	IC50 [3] [µM]	IC50 [4] [µM]	IC50 [5] [µM]	IC50 [6] [µM]
COc1ccccc1-c1c(-c2ccccc2C)ncn1C1CC(C)(C)N(C)C(C)(C)C1 [Compound 39]	41.5	> 128	> 128	–	–	–
CC(C)c1nccc(-c2c(-c3ccccc3)ncn2C[C@H]2CCCN2)n1 [Compound 40]	21	> 128	> 128	–	–	–
CC(C)c1nccc(-c2c(-c3ccccc3)ncn2C[C@H]2CCCO2)n1 [Compound 41]	11.6	> 128	> 128	–	–	–
Cc1nc[nH]c1-c1nccn1-c1ccc2c(c1)CCC2 [Compound 42]	31	> 128	> 128	–	–	–
O=C(c1c(Cl)cccc1Cl)N1CCC(Cc2ccc3c(c2)OCO3)CC1 [Compound 43]	–	–	–	3.97	35.2	> 40
O=C(NCCc1cccnc1)c1ccc(-c2cc(-c3ccc(N4CCCCC4)cc3)n[nH]2)cc1 [Compound 44]	–	–	–	10.8	> 40	> 40
Cc1ccsc1C1Nc2ccc3ccccc3c2C2=C1C(=O)CCC2 (stereo not drawn) [Compound 45]	–	–	–	> 32	28	> 40
O=C1Nc2ccccc2/C1=N\Nc1nc(Nc2ccccc2)nc(Nc2ccccc2)n1 [Compound 46]	–	–	–	2.72	11.1	> 40
O=C(NC1CCCCCCC1)C1CCCN(c2nc3ccc(Br)cc3[nH]2)C1 (stereo not drawn) [Compound 47]	–	–	–	2.41	5.52	> 40
Cc1cc(NCCCn2ccnc2)n2ncc(-c3ccc(Cl)cc3)c2n1 [Compound 48]	–	–	–	13.2	> 40	> 40
Cc1cc(C)c2nc(N3CCNCC3)sc2c1 [Compound 49]	–	–	–	13.2	> 40	> 40
Cc1ccccc1Nc1nc(NCCCO)nc2c1cnn2-c1ccccc1 [Compound 50]	–	–	–	10.9	16.1	> 40

From patent publication US20240390355A1, “IRHOM2 INHIBITORS AND USES THEREOF” (NEW YORK SOCIETY FOR THE RELIEF OF THE RUPTURED AND …, priority 2021, published 2024)
